As a reminder, the half-life is the time needed for the level to fall by half in the phase considered. Broadly, the IC50 is the concentration needed to halve the response being measured. Read a high IC50 as weaker potency. For orientation: bioavailability means the share of a dose that reaches the circulation, judged against a reference dose that is usually intravenous. Higher therefore signals much systemic uptake.

Results on 30 molecules are retold here after ChEMBL document CHEMBL1154545, “Optimization of a series of 4,6-bis-anilino-1H-pyrrolo[2,3-d]pyrimidine inhibitors of IGF-1R: elimination of an acid-mediated decomposition pathway” (Bioorg Med Chem Lett, 2009).

SMILES strings stand for the structures.

Series [1] in a line: Chemical stability assessed as half life in 0.1 N HCl by LC-MS. It counts as physicochemical.
Series [2] has as its target T1, Insulin-like growth factor 1 receptor (Homo sapiens, UniProt P08069).
Series [3] concerns the target T1, Insulin-like growth factor 1 receptor. This is another data set of the same source.
Description: Inhibition of IGF1R phosphorylation by cellular assay
A short description of series [4]: Clearance in rat at 2.2 mg/kg, iv or 9.8 mg/kg, po. It is filed as ADME, organism-based. Particulars: in vivo.
Series [5] deals with Rattus norvegicus. The series is described as follows: Dose normalized AUC in rat at 9.8 mg/kg, po. The conditions noted are these: in vivo. It is filed as ADME, organism-based. Set-up: dose 9.8 mg/kg, route oral.
Series [6] in a line: Bioavailability in rat at 9.8 mg/kg, po. It counts as ADME, organism-based. The conditions noted are these: in vivo.
Series [7] can be described thus: Clearance in rat at 2.1 mg/kg, iv or 9.2 mg/kg, po. Particulars: in vivo. It is filed as ADME, organism-based.
Series [8] concerns Rattus norvegicus. The series is described as follows: Dose normalized AUC in rat at 9.2 mg/kg, po. It is filed as ADME, organism-based. Set-up: dose 9.2 mg/kg, route oral. Particulars: in vivo.
A short description of series [9]: Bioavailability in rat at 9.2 mg/kg, po. It counts as ADME, organism-based. The conditions noted are these: in vivo.
Series [10] deals with ALK tyrosine kinase receptor (Homo sapiens, UniProt Q9UM73). The series is described as follows: Inhibition of ALK.
Series [11] concerns the target Phosphatidylinositol 4,5-bisphosphate 3-kinase catalytic subunit alpha isoform (Homo sapiens, UniProt P42336). Kind of series: Inhibition of PI3K.
For series [12], the target named is RAC-alpha serine/threonine-protein kinase (Homo sapiens, UniProt P31749). Kind of series: Inhibition of AKT.

Consider `COc1cc(N2CCC(N3CCN(S(C)(=O)=O)CC3)CC2)ccc1Nc1nc(Nc2ccsc2C(N)=O)c2cc[nH]c2n1`, for which the half-life in series [1] is 17.9 days. For the same molecule, the half-maximal inhibitory concentration (IC50) in series [2] is 5 nM; in [3] it was 92 nM.
Regarding `COc1cc(N2CCN(C(C)C)CC2)ccc1Nc1nc(-n2[nH]c(=O)c3ccccc32)c2cc[nH]c2n1`, the values for the 50% inhibitory concentration (IC50) in [2] and in series [3] were 6 nM and 546 nM, respectively.
The corresponding values for `COc1cc(N2CCN(C(C)C)CC2)ccc1Nc1nc(N2CCc3ccccc32)c2cc[nH]c2n1` are 10 nM and 1770 nM.
For `COc1cc(N2CCN(C(C)C)CC2)ccc1Nc1nc(Nc2ccccc2OC)c2cc[nH]c2n1`, the half-maximal inhibitory concentration (IC50) in [2] worked out at 32 nM; in series [3], 982 nM.
Take `COc1cc2c(cc1Nc1nc(N3CCc4ccccc43)c3cc[nH]c3n1)N(C(=O)CN(C)C)CCC2`: in series [1], the half-life is over 41.7 days. Besides, the figures for the IC50 in series [2] and in series [3] were 0.5 nM and 15 nM, respectively.
`COc1cc(N2CCN(C(C)C)CC2)ccc1Nc1nc2[nH]ccc2c2nc3cccc(F)c3c(=O)n12` yielded a clearance in [4] of 47 mL/min/kg. For the same molecule, the AUC in the series with Rattus norvegicus [5] is 18 ng·h/mL/mg/kg. Also, the bioavailability in [6] was determined as 81%. The IC50 was 7.9 nM in series [2] and 30000 nM in series [3].
Consider `CNC(=O)c1cscc1Nc1nc(Nc2cc3c(cc2OC)CCN3C(=O)CN(C)C)nc2[nH]ccc12`, for which the half-life in series [1] was 16.2 days. Moreover, the half-inhibitory concentration (IC50) in [2] worked out at 2 nM; in [3], 25 nM.
For `COc1cc2c(cc1Nc1nc(Nc3ccoc3C(N)=O)c3cc[nH]c3n1)N(C(=O)CN(C)C)CCC2` the same measures were over 41.7 days, 0.3 nM and 9 nM.
With `COc1cc(N2CCN(C(C)C)CC2)ccc1Nc1nc(Nc2ccc3ncccc3c2)c2cc[nH]c2n1`, the IC50 in [2] turned out to be 13 nM; in series [3], 773 nM.
Turning to `COc1cc(N2CCN(C(C)C)CC2)ccc1Nc1nc(Nc2cccc3c2NCC3)c2cc[nH]c2n1`, the IC50 in series [2] turned out to be 400 nM; in [3], 1690 nM.
Take `COc1cc2c(cc1Nc1nc(Nc3cccnc3C(N)=O)c3cc[nH]c3n1)N(C(=O)CN(C)C)CCC2`: the half-life in series [1] is 1.12 days. In addition, the half-inhibitory concentration (IC50) came out at 0.5 nM in series [2] and 18 nM in [3].
For `COc1cc(N2CCN(C(C)C)CC2)ccc1Nc1nc(Nc2cc(F)ccc2C(N)=O)c2cc[nH]c2n1`, the half-life in series [1] was 0.167 days. For the same molecule, in series [2], the IC50 amounted to 0.7 nM.
As to `COc1cc2c(cc1Nc1nc(Nc3cccc(F)c3C(N)=O)c3cc[nH]c3n1)N(C(=O)CN(C)C)CC2`, the half-life in series [1] is 0.0833 days. The results for the IC50 in series [2] and in series [3] were 1 nM and 54 nM, respectively.
Regarding `COc1cc(N2CCN(C(C)C)CC2)ccc1Nc1nc(Nc2ccccc2-n2cccn2)c2cc[nH]c2n1`, the 50% inhibitory concentration (IC50) in series [2] was determined as 25 nM; in [3], 654 nM.
In the case of `COc1cc(N2CCN(C(C)C)CC2)ccc1Nc1nc(Nc2ccc(F)c(F)c2C(N)=O)c2cc[nH]c2n1`, the half-life in series [1] was 0.708 days. The same molecule yielded a half-maximal inhibitory concentration (IC50) in [2] of 1.3 nM.
With `COc1cc(N2CCN(C(C)C)CC2)ccc1Nc1nc(Nc2cc(F)cc(F)c2C(N)=O)c2cc[nH]c2n1`, the half-life in [1] was 1.62 days. In addition, the IC50 in [2] was determined as 0.8 nM.
`COc1cc(N2CCN(C(C)C)CC2)ccc1Nc1nc(Nc2cccc(F)c2C(N)=O)c2cc[nH]c2n1` registered a clearance in series [7] of 51 mL/min/kg. In addition, the AUC with Rattus norvegicus [8] amounted to 156 ng·h/mL/mg/kg. In series [9], the bioavailability turned out to be 65%. Besides, in [1], the half-life was 0.708 days. The concentration for half-maximal inhibition (IC50) came out at 2 nM in series [2] and 117 nM in series [3].
For `COc1cc2c(cc1Nc1nc(Nc3cccnc3C(N)=O)c3cc[nH]c3n1)N(C(=O)CN(C)C)CC2`, the half-life in [1] is 0.625 days. In addition, the IC50 worked out at 0.7 nM in series [2] and 38 nM in [3].
In the case of `COc1cc(N2CCN(CC(C)C)CC2)ccc1Nc1nc(Nc2ccccc2C#N)c2cc[nH]c2n1`, the concentration for half-maximal inhibition (IC50) in [2] is 79 nM; in series [3], 2740 nM.
Consider `COc1cc(N2CCN(C(C)C)CC2)ccc1Nc1nc(Nc2ccsc2C(N)=O)c2cc[nH]c2n1`, for which the half-life in series [1] is over 41.7 days. Besides, the figures for the IC50 in series [2] and in series [3] were 1.6 nM and 106 nM, respectively.
As to `COc1cc2c(cc1Nc1nc(Nc3ccsc3C(N)=O)c3cc[nH]c3n1)N(C(=O)CN(C)C)CC2`, the half-life in series [1] was 10.4 days. This molecule also returned an IC50 in series [10] of 0.4 nM.
Regarding `COc1cc2c(cc1Nc1nc(Nc3ccoc3C(N)=O)c3cc[nH]c3n1)N(C(=O)CN(C)C)CC2`, the half-life in series [1] was over 41.7 days.
Turning to `CCCN1CCC(c2ccc(Nc3nc(Nc4ccsc4C(N)=O)c4cc[nH]c4n3)c(OC)c2)CC1`, the half-life in series [1] is 38.3 days. Moreover, the IC50 in [2] stood at 1.3 nM; in series [3] it was 52 nM.
Consider `COc1cc2c(cc1Nc1nc(Nc3cccc4c3C(=O)NC4)c3cc[nH]c3n1)N(C(=O)CN(C)C)CC2`, for which the half-life in series [1] was over 41.7 days. Further, the IC50 was found to be 0.8 nM in series [11], 2.5 nM in series [12], 0.8 nM in [2] and 16 nM in series [3].
In the case of `COc1cc(N2CCN(C(C)C)CC2)ccc1Nc1nc(Nc2ccc(F)cc2C(N)=O)c2cc[nH]c2n1` [GSK-1220512A], the half-life in [1] was 0.0833 days. Also, the 50% inhibitory concentration (IC50) in [2] came to 0.9 nM.
Take `COc1cc(N2CCN(C(C)C)CC2)ccc1Nc1nc(Nc2cccc3ncccc23)c2cc[nH]c2n1` [GSK-1511931A]: the 50% inhibitory concentration (IC50) in series [2] was 250 nM; in series [3] it was 2530 nM.
Take `COc1cc(N2CCN(C(C)C)CC2)ccc1Nc1nc(Nc2cccc(F)c2C(=O)O)c2cc[nH]c2n1` [GSK-1819799A]: the clearance in [4] was over 200 mL/min/kg. The same molecule gave an AUC in the series with Rattus norvegicus [5] of 0 ng·h/mL/mg/kg. The molecule also returned a bioavailability in series [6] of 0%.
Take `COc1cc2c(cc1Nc1nc(Nc3ccsc3C(N)=O)c3cc[nH]c3n1)N(C(=O)CN(C)C)CCC2` [GSK-2110236A]: the half-life in [1] was 34.6 days. In addition, the IC50 was under 0.2 nM in series [2] and 6 nM in series [3].
As for `COc1cc2c(cc1Nc1nc(Nc3ccsc3C(N)=O)c3cc[nH]c3n1)N(C(=O)CN(C)C)CCC2(C)C` [GSK-2163632A], the half-life in series [1] was 30 days. Also, the half-maximal inhibitory concentration (IC50) in [2] is 0.2 nM; in [3] it was under 2 nM.
With `COc1cc2c(cc1Nc1nc(N3CCc4ccccc43)c3cc[nH]c3n1)N(C(=O)CN(C)C)CC2` [GSK-2186269A], the half-life in series [1] was over 41.7 days. Further, the IC50 in series [2] is 0.8 nM; in [3], 160 nM.
